From patent US20050100940A1, “Novel FDRG protein and nucleic acid molecules and uses therefor” (Millennium Pharmaceuticals, Inc., priority 1998, published 2005)

Columns and labels:
[1] = test system: lean or ob/ob mice; test: Intraperitoneal leptin administration versus pair-fed mice, FDRG expression in brown fat; format: in vivo, mouse; conditions: 12.5 mg/kg leptin i.p. twice daily
Description: In this study, 10 week old lean or ob/ob mice were divided into three groups. The first group was the control, intraperitoneally injected with 1.5 ml PBS twice daily. […] The third group, the pair-fed group, was diet restricted to match the amount of food intake by the leptin-injected group, and was also injected with PBS. The animals were sacrified at the end of one week. […] That may reflect a fundamental difference in leptin-induced dietary restriction versus externally imposed restriction, or may be consistent with a further downstream effect, e.g., leptin-mediated suppression of FDRG upregulation that would ordinarily result from reduced food intake.

[2] = test system: FDRG mRNA in NIH3T3 fibroblasts stably expressing PPARγ; test: Northern blot of FDRG mRNA in NIH3T3 fibroblasts stably expressing PPARγ; format: cell-based, murine
Description: NIH3T3 fibroblasts stably expressing PPARγ were treated with 10 μg/ml pioglitazone for 0, 2, and 4 hours.

[3] = test system: Male Zucker diabetic fatty (fa/fa) rats; test: Chronic troglitazone treatment of Zucker diabetic fatty rats, Northern blots of white adipose tissue; format: in vivo, rat; conditions: 6 mg/kg/day in food, after 4 and 20 weeks of treatment
Description: This experiment describes analysis of FDRG mRNA levels in rats following chronic troglitazone treatment to determine if FDRG expresion is regulated by PPARγ in vivo. Male Zucker diabetic fatty (fa/fa) rats were treated with 6 mg/kg/day (1.2% w/v) troglitazone or placebo admixed with food starting at 6 weeks of age and continuing until 26 weeks. […] Northern blots were performed on RNA isolated from white adipose tissue of treated and untreated animals, four from each group, after 4 and 20 weeks of treatment. […] This was true even when normalized to aP2, a fat cell marker. Glut4 mRNA was also found to be elevated, in agreement with published reports by other groups. Ribosomal-associated 36B4 served as a loading control.

leptin: a protein secreted by fat cells, metabolic hormone
Dietary intake [1]: decrease in dietary intake
FDRG expression in brown fat (rise seen with restriction of caloric intake) ([1]; one week, versus pair-fed group): this rise is not seen

CCc1ccc(CCOc2ccc(CC3SC(=O)NC3=O)cc2)nc1 (stereo not drawn) [pioglitazone]
Increase in FDRG mRNA ([2]; 10 μg/ml pioglitazone, within two hours, versus untreated cells): ≥ 10 fold

Cc1c(C)c2c(c(C)c1O)CCC(C)(COc1ccc(CC3SC(=O)NC3=O)cc1)O2 (stereo not drawn) [troglitazone]
FDRG expression in vivo, upregulation versus controls [3]: 3-5 fold

C[C@@H]1C[C@@H]([C@H](O)CC2CC(=O)NC(=O)C2)C(=O)[C@@H](C)C1 [cycloheximide]
Effect on FDRG mRNA by itself ([2]; 5 μg/ml cycloheximide alone): causes a rise in FDRG mRNA
Effect of pre-treatment on pioglitazone induction of FDRG mRNA ([2]; pre-treatment with 5 μg/ml cycloheximide, then 10 μg/ml pioglitazone): does not block this induction
